Literature values, collected in publication PMC5907794 (Journal of Medicinal Chemistry, 2018).

Experiments:
[1] = ref 60−62
[2] = ref 60−63

Which “Solubility in aqueous media (in words)” value [1] does the source give for `CC(=O)O[C@H]1C(=O)[C@@]2(C)[C@H]([C@H](OC(=O)c3ccccc3)[C@]3(O)C[C@H](OC(=O)[C@H](O)[C@@H](NC(=O)c4ccccc4)c4ccccc4)C(C)=C1C3(C)C)[C@]1(OC(C)=O)CO[C@@H]1C[C@@H]2O` [Paclitaxel, paclitaxel] here?
The value was “low solubility in aqueous media”.

And the Dose-limiting side effects [2]?
The Dose-limiting side effects was “severe dose-limiting side effects”.
